System: oral sensitization model of BALB/c mouse
Assay: Oral sensitization model with OVA, oligosaccharide-added feeds, serum antigen-specific antibody titer (ELISA)
Assay type: in vivo
Conditions: 5% (w/w) in feed
Source text: An oral sensitization model of BALB/c mouse using ovalbumin (OVA) as a model antigen was produced, and influences exerted by various oligosaccharides added to feed on serum antibody titer were compared. Until initiation of the experiment, 12-week old male BALM/c mice were allowed to freely take AIN-93G as a base feed (α-corn starch, 529.5 g/kg; casein, 200 g/kg; sucrose, 100 g/kg; soy bean oil, 70 g/kg; cellulose, 50 g/kg; mineral mixing, 35 g/kg; vitamin mixing, 10 g/kg; L-cystine, 3 g/kg; choline bitartarate, 2.5 g/kg) . After pre-breeding for 1 week, an oligosaccahide no-[…] (base seed) group, and feeds obtained by substituting 5% (w/w) of the base feed with raffinose (RAF), α-GOS (hereinafter, referred to simply as GOS), fructooligosaccharide (FOS), xylooligosaccharide (XOS), that is, five groups were prepared, and mice were allowed to freely take these feeds for 8weeks. During this, an aqueous OVA solution (1 mg/0.2 mL) was orally administered forcibly everyday. After initiation of aministration of OVA, blood was collected from orbital venous plexus every one week, and centrifugally separated to obtain sera. Sear of one group (9/group) were pooled, and subjected to quantification of antigen-specific antibody titer by ELISA.

SMILES: OC[C@H]1O[C@H](OC[C@H]2O[C@H](O[C@]3(CO)O[C@H](CO)[C@@H](O)[C@@H]3O)[C@H](O)[C@@H](O)[C@@H]2O)[C@H](O)[C@@H](O)[C@H]1O [RAF, raffinose]
- effect on increase of IgE (overall conclusion) (8 weeks daily oral OVA): effect of delaying increase
- effect on increase of IgG (overall conclusion) (8 weeks daily oral OVA): effect of delaying increase
- antigen-specific IgG in blood (at 2 to 5 weeks): changed lower than the oligosaccharide no-addition feed group
- antigen-specific IgE in blood (at 8 weeks): showed the same high value as that of the FOS group
- antigen-specific IgE in blood (until 7 weeks): changed lower than the oligosaccharide no-addition feed group and the FOS feed group

Reference: patent publication US20060234980A1, “Antiinflammatory agent, agent for preventing/ameliorating allergic diseases and functional food” (priority 2002, published 2006)
